Each block holds one compound with its values, some of them ahead of it.
Target: T1, KDM5A (Homo sapiens, UniProt P29375)
T1 construct: Full length KDM5A enzyme was expressed and purified inhouse; made in house
Test: KDM5 enzyme assay, KDM5A HTRF (Example 463)
Format: biochemical
Details: compounds of Examples 1-432; read-out: Example 463 Assay KDM5A HTRF IC50
Procedure: Full length KDM5A enzyme was expressed and purified inhouse. Biotin-H3K4me3 peptide was purchased from New England Biolabs. HTRF reagents (containing Eu-labeled H3K4me1-2 antibody, and streptavidin-XL665) were purchased from Cis-Bio International. Plates were read on an Envision multi-label plate reader Perkin Elmer).
The HTRF assay mixture contained 2 nM full length KDM5A enzyme, 100 nM H3K4Me3 peptide substrate, 1 uM 2-OG, 100 uM Fe^2+, 500 uM ascorbate. 50 mM HEPES pH 7.0 buffer, 0.01% Triton-X 100, 2 mM DTT. […] The plates were incubated at room temperature for 60 minutes and then read in the Envision plate reader.

T1 sequence (P29375 whole entry): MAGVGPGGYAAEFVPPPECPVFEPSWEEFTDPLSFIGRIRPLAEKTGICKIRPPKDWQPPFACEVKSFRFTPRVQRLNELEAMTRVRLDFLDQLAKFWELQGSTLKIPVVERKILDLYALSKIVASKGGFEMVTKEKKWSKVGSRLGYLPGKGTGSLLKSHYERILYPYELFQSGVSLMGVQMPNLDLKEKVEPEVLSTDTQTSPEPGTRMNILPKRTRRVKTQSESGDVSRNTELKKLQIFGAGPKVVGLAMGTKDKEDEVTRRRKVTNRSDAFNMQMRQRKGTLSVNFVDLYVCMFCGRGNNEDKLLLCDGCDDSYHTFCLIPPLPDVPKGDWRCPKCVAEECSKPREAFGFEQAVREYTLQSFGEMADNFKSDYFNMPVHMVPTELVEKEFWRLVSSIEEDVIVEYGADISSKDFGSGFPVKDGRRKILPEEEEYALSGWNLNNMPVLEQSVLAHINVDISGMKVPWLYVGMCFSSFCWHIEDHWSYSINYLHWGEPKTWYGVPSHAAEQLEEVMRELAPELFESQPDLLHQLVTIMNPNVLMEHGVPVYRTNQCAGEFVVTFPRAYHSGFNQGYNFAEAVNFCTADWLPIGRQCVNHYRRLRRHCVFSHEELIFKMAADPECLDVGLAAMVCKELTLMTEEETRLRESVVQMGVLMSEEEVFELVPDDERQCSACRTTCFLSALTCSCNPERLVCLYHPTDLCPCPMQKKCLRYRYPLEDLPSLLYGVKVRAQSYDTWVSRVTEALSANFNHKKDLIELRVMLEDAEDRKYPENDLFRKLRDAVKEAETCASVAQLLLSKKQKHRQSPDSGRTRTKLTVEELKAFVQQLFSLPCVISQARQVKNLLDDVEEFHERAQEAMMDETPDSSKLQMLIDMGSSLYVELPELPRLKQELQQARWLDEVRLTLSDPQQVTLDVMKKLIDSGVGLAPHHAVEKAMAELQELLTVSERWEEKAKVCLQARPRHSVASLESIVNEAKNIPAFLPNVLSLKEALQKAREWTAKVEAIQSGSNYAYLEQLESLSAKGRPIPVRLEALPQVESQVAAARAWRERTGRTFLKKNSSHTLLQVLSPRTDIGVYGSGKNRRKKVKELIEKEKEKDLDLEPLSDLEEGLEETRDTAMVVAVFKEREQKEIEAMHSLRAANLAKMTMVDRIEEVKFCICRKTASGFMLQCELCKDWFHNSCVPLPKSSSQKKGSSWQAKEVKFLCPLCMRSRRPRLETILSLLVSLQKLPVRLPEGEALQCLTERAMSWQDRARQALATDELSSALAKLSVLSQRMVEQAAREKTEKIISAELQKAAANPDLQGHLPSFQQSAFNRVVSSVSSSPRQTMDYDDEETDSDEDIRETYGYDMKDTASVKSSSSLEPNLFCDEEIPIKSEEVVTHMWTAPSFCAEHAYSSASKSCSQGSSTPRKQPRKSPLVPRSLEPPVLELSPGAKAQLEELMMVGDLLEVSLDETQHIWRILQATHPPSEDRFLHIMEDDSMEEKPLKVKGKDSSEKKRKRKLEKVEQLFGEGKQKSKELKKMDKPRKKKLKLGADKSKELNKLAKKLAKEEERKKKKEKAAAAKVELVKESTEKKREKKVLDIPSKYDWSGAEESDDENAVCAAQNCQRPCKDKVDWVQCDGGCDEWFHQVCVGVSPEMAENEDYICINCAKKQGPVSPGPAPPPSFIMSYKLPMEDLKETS

SMILES: CC(C)c1c(-c2cnn(-c3ccncc3)c2)[nH]c2c(C#N)cnn2c1=O [Example 11, 6-Isopropyl-7-oxo-5-(1-(pyridin-4-yl)-1H-pyrazol-4-yl)-4,7-dihydropyrazolo[1,5-a]pyrimidine-3-carbonitrile]
- IC50: 14 nM

SMILES: CC(C)c1c(-c2cnn(-c3ccccn3)c2)[nH]c2c(C#N)cnn2c1=O [Example 12, 6-Isopropyl-7-oxo-5-(1-(pyridin-2-yl)-1H-pyrazol-4-yl)-4,7-dihydropyrazolo[1,5-a]pyrimidine-3-carbonitrile]
- IC50: 18 nM

SMILES: CNC(=O)C(C)(C)n1cc(-c2[nH]c3c(C#N)cnn3c(=O)c2C(C)C)cn1 [Example 13, 2-(4-(3-Cyano-6-isopropyl-7-oxo-4,7-dihydropyrazolo[1,5-a]pyrimidin-5-yl)-1H-pyrazol-1-yl)-N,2-dimethylpropanamide]
- IC50: 23 nM

SMILES: CC(C)c1c(-c2cnn(C(C)C)c2F)[nH]c2c(C#N)cnn2c1=O [Example 14, 5-(5-Fluoro-1-isopropyl-1H-pyrazol-4-yl)-6-isopropyl-7-oxo-4,7-dihydropyrazolo[1,5-a]pyrimidine-3-carbonitrile]
- IC50: 5.3 nM

SMILES: CC(C)c1c(-c2cnn(C3CCSCC3)c2)[nH]c2c(C#N)cnn2c1=O [Example 17, 6-isopropyl-7-oxo-5-(1-(tetrahydro-2H-thiopyran-4-yl)-1H-pyrazol-4-yl)-4,7-dihydropyrazolo[1,5-a]pyrimidine-3-carbonitrile]
- IC50: 41 nM

SMILES: CC(C)c1c(-c2cnn(C3CCS(=O)(=O)CC3)c2)[nH]c2c(C#N)cnn2c1=O [Example 18, 5-(1-(1,1-Dioxidotetrahydro-2H-thiopyran-4-yl)-1H-pyrazol-4-yl)-6-isopropyl-7-oxo-4,7-dihydropyrazolo[1,5-a]pyrimidine-3-carbonitrile]
- IC50: 21 nM

SMILES: CC(=O)/C=C/c1cccc(Cn2cc(-c3[nH]c4c(C#N)cnn4c(=O)c3C(C)C)cn2)n1 [Example 19, (E)-6-isopropyl-7-oxo-5-(1-((6-(3-oxobut-1-en-1-yl)pyridin-2-yl)methyl)-1H-pyrazol-4-yl)-4,7-dihydropyrazolo[1,5-a]pyrimidine-3-carbonitrile]
- IC50: 55 nM

SMILES: N#Cc1cnn2c(=O)c(C3CCC3)c(-c3ccccc3)[nH]c12 [Example 34, 6-Cyclobutyl-7-oxo-5-phenyl-4H-pyrazolo[1,5-a]pyrimidine-3-carbonitrile]
- IC50: 9.5 nM

SMILES: N#Cc1cnn2c(=O)c(C3CCC3)c(-c3cnn(C4CCCCC4)c3)[nH]c12 [Example 36, 6-Cyclobutyl-5-(1-cyclohexylpyrazol-4-yl)-7-oxo-4H-pyrazolo[1,5-a]pyrimidine-3-carbonitrile]
- IC50: 10.4 nM

SMILES: C#CC(C)c1c(-c2cnn(C(C)C)c2)[nH]c2c(C#N)cnn2c1=O (centres unmarked) [Example 38, 5-(1-isopropylpyrazol-4-yl)-6-(1-methylprop-2-ynyl)-7-oxo-4H-pyrazolo[1,5-a]pyrimidine-3-carbonitrile]
- IC50: 36 nM

SMILES: CCc1c(-c2cccc(Nc3ccc(F)cc3)c2)[nH]c2c(C#N)cnn2c1=O [Example 41, 6-Ethyl-5-(3-((4-fluorophenyl)amino)phenyl)-7-oxo-4,7-dihydropyrazolo[1,5-a]pyrimidine-3-carbonitrile]
- IC50: 19 nM

SMILES: CC(C)c1c(-c2cccc(N3CCCC3=O)c2)[nH]c2c(C#N)cnn2c1=O [Example 42, 6-isopropyl-7-oxo-5-(3-(2-oxopyrrolidin-1-yl)phenyl)-4,7-dihydropyrazolo[1,5-a]pyrimidine-3-carbonitrile]
- IC50: 21 nM

Second part, the compound after the results:

- IC50: 37 nM
SMILES: CCc1c[nH]c2c(C#N)cnn2c1=O [Example 20, 6-Ethyl-7-oxo-4,7-dihydropyrazolo[1,5-a]pyrimidine-3-carbonitrile]

- IC50: 38 nM
SMILES: CC(C)(C)c1c[nH]c2c(C#N)cnn2c1=O [Example 21, 6-(tert-Butyl)-7-oxo-4,7-dihydropyrazolo[1,5-a]pyrimidine-3-carbonitrile]

- IC50: 9.8 nM
SMILES: CC(C)c1c(CCc2ccccc2)[nH]c2c(C#N)cnn2c1=O [Example 23, 6-isopropyl-7-oxo-5-phenethyl-4,7-dihydropyrazolo[1,5-a]pyrimidine-3-carbonitrile]

- IC50: 7 nM
SMILES: CCc1c(-c2cccc(I)c2)[nH]c2c(C#N)cnn2c1=O [Example 24, 6-ethyl-5-(3-iodophenyl)-7-oxo-4,7-dihydropyrazolo[1,5-a]pyrimidine-3-carbonitrile]

- IC50: 220 nM
SMILES: CCc1c(C(=O)O)[nH]c2c(C#N)cnn2c1=O [Example 25, 3-cyano-6-ethyl-7-oxo-4,7-dihydropyrazolo[1,5-a]pyrimidine-5-carb oxylic acid]

- IC50: 4400 nM
SMILES: CCc1c(C(N)=O)n(C)c2c(C#N)cnn2c1=O [Example 26, 3-cyano-6-ethyl-4-methyl-7-oxo-4,7-dihydropyrazolo[1,5-a]pyrimidine-5-carboxamide]

- IC50: 3900 nM
SMILES: CCc1c(C(=O)NC)n(C)c2c(C#N)cnn2c1=O [Example 27, 3-cyano-6-ethyl-N,4-dimethyl-7-oxo-4,7-dihydropyrazolo[1,5-a]pyrimidine-5-carboxamide]

- IC50: 18 nM
SMILES: CCc1c(-c2nc(C)no2)[nH]c2c(C#N)cnn2c1=O [Example 28, 6-ethyl-5-(3-methyl-1,2,4-oxadiazol-5-yl)-7-oxo-4H-pyrazolo[1,5-a]pyrimidine-3-carbonitrile]

- IC50: 16 nM
SMILES: CCc1c(-c2nnc(C)o2)[nH]c2c(C#N)cnn2c1=O [Example 29, 6-ethyl-5-(5-methyl-1,3,4-oxadiazol-2-yl)-7-oxo-4,7-dihydropyrazolo[1,5-a]pyrimidine-3-carbonitrile]

- IC50: 12 nM
SMILES: CCc1c(-c2ncc[nH]2)[nH]c2c(C#N)cnn2c1=O [Example 30, 6-ethyl-5-(1H-imidazol-2-yl)-7-oxo-4,7-dihydropyrazolo[1,5-a]pyrimidine-3-carbonitrile]

- IC50: 25 nM
SMILES: CCc1c(C(=O)NCC(=O)c2ccccc2)[nH]c2c(C#N)cnn2c1=O [Example 31, 3-cyano-6-ethyl-7-oxo-N-(2-oxo-2-phenylethyl)-4,7-dihydropyrazolo[1,5-a]pyrimidine-5-carboxamide]

- IC50: 15 nM
SMILES: CCc1c(-c2ncc(-c3ccccc3)o2)[nH]c2c(C#N)cnn2c1=O [Example 32, 6-ethyl-7-oxo-5-(5-phenyloxazol-2-yl)-4,7-dihydropyrazolo[1,5-a]pyrimidine-3-carbonitrile]

- IC50: 9.3 nM
SMILES: N#Cc1cnn2c(=O)c(CC(F)F)c(-c3ccccc3)[nH]c12 [Example 33, 6-(2,2-Difluoroethyl)-7-oxo-5-phenyl-4H-pyrazolo[1,5-a]pyrimidine-3-carbonitrile]

- IC50: 30 nM
SMILES: N#Cc1cnn2c(=O)c(C3CCC3)c(-c3cn[nH]c3)[nH]c12 [Example 35, 6-Cyclobutyl-7-oxo-5-(1H-pyrazol-4-yl)-4H-pyrazolo[1,5-a]pyrimidine-3-carbonitrile]

- IC50: 24 nM
SMILES: C#CCc1c(-c2ccccc2)[nH]c2c(C#N)cnn2c1=O [Example 37, 7-Oxo-5-phenyl-6-(prop-2-yn-1-yl)-4,7-dihydropyrazolo[1,5-a]pyrimidine-3-carbonitrile]

- IC50: 128 nM
SMILES: CC(c1c(-c2ccccc2)[nH]c2c(C#N)cnn2c1=O)C1CC1 (centres unmarked) [Example 39, 6-(1-cyclopropylethyl)-7-oxo-5-phenyl-4H-pyrazolo[1,5-a]pyrimidine-3-carbonitrile]

- IC50: 10 nM
SMILES: CCc1c(-c2cccc(-c3ccccc3)c2)[nH]c2c(C#N)cnn2c1=O [Example 40, 5-([1,1′-Biphenyl]-3-yl)-6-ethyl-7-oxo-4,7-dihydropyrazolo[1,5-a]pyrimidine-3-carbonitrile]

From patent US10035801B2, “Pyrazolo compounds and uses thereof” (CONSTELLATION PHARMACEUTICALS, INC., priority 2013, dated 2018)
